# Tested on: 616215-338-R-J1-PDC spheroids with HUVEC/MSC, viability
# Test: Anticancer human tumor 616215-338-R-J1-PDC patient-derived colon adenocarcinoma cell line growth inhibition [PI3K]
# Settings: for IC50: curve of first compound; for viability, T/C: stronger effect = lower value
# Method in brief: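 Tumor cells were combined with HUVEC and MSCs into spheroids, then dosed with PI3K-inhibitor combinations over half-log ranges capped near clinical Cmax or 10 microM.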
# [1] = second compound 0.00316 µM, first compound 0.0316 µM
# [2] = second compound 0.00316 µM, first compound 0.1 µM
# [3] = second compound 0.00316 µM, first compound 0.316 µM
# [4] = second compound 0.00316 µM, first compound 1 µM
# [5] = second compound 0.00316 µM, first compound 3.16 µM
# [6] = second compound 0.00316 µM, first compound 10 µM
# [7] = second compound 0.01 µM, first compound 0.0316 µM
# [8] = second compound 0.01 µM, first compound 0.1 µM
# [9] = second compound 0.01 µM, first compound 0.316 µM
# [10] = second compound 0.01 µM, first compound 1 µM
# [11] = second compound 0.01 µM, first compound 3.16 µM
# [12] = second compound 0.01 µM, first compound 10 µM
# [13] = second compound 0.0316 µM, first compound 0.0316 µM
# [14] = second compound 0.0316 µM, first compound 0.1 µM
# [15] = second compound 0.0316 µM, first compound 0.316 µM
# [16] = second compound 0.0316 µM, first compound 1 µM
# [17] = second compound 0.0316 µM, first compound 3.16 µM
# [18] = second compound 0.0316 µM, first compound 10 µM
# [19] = second compound 0.1 µM, first compound 0.0316 µM
# [20] = second compound 0.1 µM, first compound 0.1 µM
# [21] = second compound 0.1 µM, first compound 0.316 µM
# [22] = second compound 0.1 µM, first compound 1 µM
# [23] = second compound 0.1 µM, first compound 3.16 µM
# [24] = second compound 0.1 µM, first compound 10 µM
# [25] = second compound 0.316 µM, first compound 0.0316 µM
# [26] = second compound 0.316 µM, first compound 0.1 µM
# [27] = second compound 0.316 µM, first compound 0.316 µM
# [28] = second compound 0.316 µM, first compound 1 µM
# [29] = second compound 0.316 µM, first compound 3.16 µM
# [30] = second compound 0.316 µM, first compound 10 µM
# [31] = second compound 1 µM, first compound 0.0316 µM
# [32] = second compound 1 µM, first compound 0.1 µM
# [33] = second compound 1 µM, first compound 0.316 µM
# [34] = second compound 1 µM, first compound 1 µM
# [35] = second compound 1 µM, first compound 3.16 µM
# [36] = second compound 1 µM, first compound 10 µM
# 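Also: spheroids exposed to agents for seven days before the viability read.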
smiles,measurement,setting,value
CNC(=O)c1ccc(N2C(=S)N(c3ccc(C#N)c(C(F)(F)F)c3)C(=O)C2(C)C)cc1F + COc1c(OCCCN2CCOCC2)ccc2c3n(c(=NC(=O)c4cnc(N)nc4)nc12)CCN3,IC50,second compound 0.00316 µM,> 10 µM
same,IC50,second compound 0.01 µM,> 10 µM
same,IC50,second compound 0.0316 µM,> 10 µM
same,IC50,second compound 0.1 µM,> 10 µM
same,IC50,second compound 0.316 µM,< 0.0316 µM
same,IC50,second compound 1 µM,< 0.0316 µM
same,"viability, T/C",[1],92.8%
same,"viability, T/C",[2],92.1%
same,"viability, T/C",[3],95.9%
same,"viability, T/C",[4],92%
same,"viability, T/C",[5],99%
same,"viability, T/C",[6],93%
same,"viability, T/C",[7],98.7%
same,"viability, T/C",[8],108%
same,"viability, T/C",[9],103%
same,"viability, T/C",[10],93.3%
same,"viability, T/C",[11],111%
same,"viability, T/C",[12],87%
same,"viability, T/C",[13],103%
same,"viability, T/C",[14],98.1%
same,"viability, T/C",[15],99.8%
same,"viability, T/C",[16],105%
same,"viability, T/C",[17],96.5%
same,"viability, T/C",[18],89.1%
same,"viability, T/C",[19],97.4%
same,"viability, T/C",[20],89.6%
same,"viability, T/C",[21],91.5%
same,"viability, T/C",[22],107%
same,"viability, T/C",[23],84.6%
same,"viability, T/C",[24],67%
same,"viability, T/C",[25],50.8%
same,"viability, T/C",[26],45.3%
same,"viability, T/C",[27],38.1%
same,"viability, T/C",[28],43.1%
same,"viability, T/C",[29],41.1%
same,"viability, T/C",[30],29.2%
same,"viability, T/C",[31],21.8%
same,"viability, T/C",[32],22.5%
same,"viability, T/C",[33],22.8%
same,"viability, T/C",[34],22%
same,"viability, T/C",[35],25.6%
same,"viability, T/C",[36],14.4%
C#Cc1c(F)ccc2cc(O)cc(-c3ncc4c(N5CC6CCC(C5)N6)nc(OCC56CCCN5CC(F)C6)nc4c3F)c12 (stereo not drawn) + CC(Nc1ccc2c(c1)OCCn1cc(N3C(=O)OCC3C(F)F)nc1-2)C(N)=O,IC50,second compound 0.00316 µM,> 10 µM
same,IC50,second compound 0.01 µM,> 10 µM
same,IC50,second compound 0.0316 µM,> 10 µM
same,IC50,second compound 0.1 µM,> 10 µM
same,IC50,second compound 0.316 µM,6.86 µM
same,IC50,second compound 1 µM,7.1 µM
same,"viability, T/C",[1],102%
same,"viability, T/C",[2],79.6%
same,"viability, T/C",[3],111%
same,"viability, T/C",[4],100%
same,"viability, T/C",[5],90.5%
same,"viability, T/C",[6],74.6%
same,"viability, T/C",[7],90%
same,"viability, T/C",[8],94%
same,"viability, T/C",[9],102%
same,"viability, T/C",[10],95.7%
same,"viability, T/C",[11],98.2%
same,"viability, T/C",[12],62.2%
same,"viability, T/C",[13],96%
same,"viability, T/C",[14],95.4%
same,"viability, T/C",[15],106%
same,"viability, T/C",[16],99.7%
same,"viability, T/C",[17],81.8%
same,"viability, T/C",[18],62.6%
same,"viability, T/C",[19],101%
same,"viability, T/C",[20],100%
same,"viability, T/C",[21],101%
same,"viability, T/C",[22],83.1%
same,"viability, T/C",[23],79.7%
same,"viability, T/C",[24],52.8%
same,"viability, T/C",[25],100%
same,"viability, T/C",[26],96.5%
same,"viability, T/C",[27],95.9%
same,"viability, T/C",[28],87.2%
same,"viability, T/C",[29],71.4%
same,"viability, T/C",[30],39.5%
same,"viability, T/C",[31],95.3%
same,"viability, T/C",[32],84.2%
same,"viability, T/C",[33],90.1%
same,"viability, T/C",[34],86.9%
same,"viability, T/C",[35],67.5%
same,"viability, T/C",[36],42.6%
Cn1cnc2c(F)c(Nc3ccc(Br)cc3Cl)c(C(=O)NOCCO)cc21 + COc1c(OCCCN2CCOCC2)ccc2c3n(c(=NC(=O)c4cnc(N)nc4)nc12)CCN3,IC50,second compound 0.00316 µM,2.23 µM
same,IC50,second compound 0.01 µM,1.35 µM
same,IC50,second compound 0.0316 µM,0.81 µM
same,IC50,second compound 0.1 µM,0.413 µM
same,IC50,second compound 0.316 µM,< 0.00949 µM
same,IC50,second compound 1 µM,< 0.00949 µM
same,"viability, T/C","second compound 0.00316 µM, first compound 0.00949 µM",93.6%
same,"viability, T/C","second compound 0.00316 µM, first compound 0.03 µM",99.3%
same,"viability, T/C","second compound 0.00316 µM, first compound 0.0949 µM",91.1%
same,"viability, T/C","second compound 0.00316 µM, first compound 0.3 µM",83.3%
same,"viability, T/C","second compound 0.00316 µM, first compound 0.949 µM",72.8%
same,"viability, T/C","second compound 0.00316 µM, first compound 3 µM",41.9%
same,"viability, T/C","second compound 0.01 µM, first compound 0.00949 µM",99.3%
same,"viability, T/C","second compound 0.01 µM, first compound 0.03 µM",95%
same,"viability, T/C","second compound 0.01 µM, first compound 0.0949 µM",85.4%
same,"viability, T/C","second compound 0.01 µM, first compound 0.3 µM",86.5%
same,"viability, T/C","second compound 0.01 µM, first compound 0.949 µM",54.5%
same,"viability, T/C","second compound 0.01 µM, first compound 3 µM",38.1%
same,"viability, T/C","second compound 0.0316 µM, first compound 0.00949 µM",99.3%
same,"viability, T/C","second compound 0.0316 µM, first compound 0.03 µM",94.8%
same,"viability, T/C","second compound 0.0316 µM, first compound 0.0949 µM",73.7%
same,"viability, T/C","second compound 0.0316 µM, first compound 0.3 µM",76.3%
same,"viability, T/C","second compound 0.0316 µM, first compound 0.949 µM",42.5%
same,"viability, T/C","second compound 0.0316 µM, first compound 3 µM",24.7%
same,"viability, T/C","second compound 0.1 µM, first compound 0.00949 µM",94%
same,"viability, T/C","second compound 0.1 µM, first compound 0.03 µM",86.7%
same,"viability, T/C","second compound 0.1 µM, first compound 0.0949 µM",76.1%
same,"viability, T/C","second compound 0.1 µM, first compound 0.3 µM",58.6%
same,"viability, T/C","second compound 0.1 µM, first compound 0.949 µM",30.9%
same,"viability, T/C","second compound 0.1 µM, first compound 3 µM",13.2%
same,"viability, T/C","second compound 0.316 µM, first compound 0.00949 µM",37.6%
same,"viability, T/C","second compound 0.316 µM, first compound 0.03 µM",47.4%
same,"viability, T/C","second compound 0.316 µM, first compound 0.0949 µM",36.9%
same,"viability, T/C","second compound 0.316 µM, first compound 0.3 µM",24.9%
same,"viability, T/C","second compound 0.316 µM, first compound 0.949 µM",11.7%
same,"viability, T/C","second compound 0.316 µM, first compound 3 µM",1.63%
same,"viability, T/C","second compound 1 µM, first compound 0.00949 µM",22.2%
same,"viability, T/C","second compound 1 µM, first compound 0.03 µM",12.8%
same,"viability, T/C","second compound 1 µM, first compound 0.0949 µM",6.6%
same,"viability, T/C","second compound 1 µM, first compound 0.3 µM",2.1%
same,"viability, T/C","second compound 1 µM, first compound 0.949 µM",0.32%
same,"viability, T/C","second compound 1 µM, first compound 3 µM",0.32%
CC1(C)CCC(Nc2ncc(C(F)(F)F)c(-c3c[nH]c4c(P(C)(C)=O)c(C#N)ccc34)n2)CN1 (stereo not drawn) + CC(Nc1ccc2c(c1)OCCn1cc(N3C(=O)OCC3C(F)F)nc1-2)C(N)=O,IC50,second compound 0.00316 µM,3.62 µM
same,IC50,second compound 0.01 µM,3.73 µM
same,IC50,second compound 0.0316 µM,3.54 µM
same,IC50,second compound 0.1 µM,3.84 µM
same,IC50,second compound 0.316 µM,1.63 µM
same,IC50,second compound 1 µM,1.39 µM
same,"viability, T/C",[1],50.4%
same,"viability, T/C",[2],55.4%
same,"viability, T/C",[3],56.4%
same,"viability, T/C",[4],61.7%
same,"viability, T/C",[5],59.1%
same,"viability, T/C",[6],0.47%
same,"viability, T/C",[7],53.6%
same,"viability, T/C",[8],54.3%
same,"viability, T/C",[9],58%
same,"viability, T/C",[10],64.8%
same,"viability, T/C",[11],61%
same,"viability, T/C",[12],0.42%
same,"viability, T/C",[13],58%
same,"viability, T/C",[14],49.4%
same,"viability, T/C",[15],71.4%
same,"viability, T/C",[16],52.2%
same,"viability, T/C",[17],55.4%
same,"viability, T/C",[18],2.25%
same,"viability, T/C",[19],66.7%
same,"viability, T/C",[20],59.5%
same,"viability, T/C",[21],53.2%
same,"viability, T/C",[22],59.4%
same,"viability, T/C",[23],60.4%
same,"viability, T/C",[24],2.28%
same,"viability, T/C",[25],49.8%
same,"viability, T/C",[26],45.8%
same,"viability, T/C",[27],59.5%
same,"viability, T/C",[28],71.9%
same,"viability, T/C",[29],41%
same,"viability, T/C",[30],0.25%
same,"viability, T/C",[31],49.6%
same,"viability, T/C",[32],54.3%
same,"viability, T/C",[33],64.7%
same,"viability, T/C",[34],62.2%
same,"viability, T/C",[35],30.8%
same,"viability, T/C",[36],1.17%

# From PubChem BioAssay AID1963978 (Molecular Pharmacology Branch, DTP, NCI, 2024)
